The values that follow come from ChEMBL document CHEMBL1145805, “Utilization of a beta-aminophosphotyrosyl mimetic in the design and synthesis of macrocyclic Grb2 SH2 domain-binding peptides” (J Med Chem, 2003).

Assay [1] concerns the target T1, Growth factor receptor-bound protein 2 (Homo sapiens, UniProt P62993). Briefly: Inhibition of Growth factor receptor bound protein 2 SH2 domain in extracellular binding assay.
Target sequence in this assay (P62993 whole entry, the tested form may be a part): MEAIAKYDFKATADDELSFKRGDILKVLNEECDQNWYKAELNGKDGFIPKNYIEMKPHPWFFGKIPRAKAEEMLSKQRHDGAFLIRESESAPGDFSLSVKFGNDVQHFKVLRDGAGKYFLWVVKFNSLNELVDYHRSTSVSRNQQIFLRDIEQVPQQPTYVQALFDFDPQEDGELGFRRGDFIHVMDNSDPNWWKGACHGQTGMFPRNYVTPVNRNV
In assay [2] the target is T1, Growth factor receptor-bound protein 2. The assay can be described thus: Inhibition of growth factor receptor-bound protein 2 SH2 domain binding to erbB-2 in cell-based assay (Not significant).
Target sequence in this assay (P62993 whole entry, looked up, the tested form may be a part): as the sequence (P62993 whole entry, the tested form may be a part) above
Another assay relates to MDA-MB-453. Briefly: Inhibition of MDA-MB-453 breast cancer cell proliferation (No inhibition). In kind it is functional, cell-based. The conditions noted are these: Homo sapiens.

Active and inactive are the calls of the source. No cut-off for these calls is given here.

Usually IC50 stands for the concentration at which inhibition is half-maximal. Turning to `NC(=O)C[C@@H]1NC(=O)C2(CCCCC2)NC(=O)C[C@@H](c2ccc(CP(=O)(O)O)cc2)NC(=O)CCCNC1=O`, the IC50 in assay [1] came out at 47.9 µM.
In assay [1], `NC(=O)C[C@H](NC(=O)C1(NC(=O)CCc2ccc(CP(=O)(O)O)cc2)CCCCC1)C(N)=O` registered a half-maximal inhibitory concentration (IC50) of 52.5 µM.
`NC(=O)C[C@@H]1NC(=O)C2(CCCCC2)NC(=O)C[C@@H](c2ccc(CP(=O)(O)O)cc2)/C=C/C[C@@H](Cc2cccc3ccccc23)CNC1=O` came in with a half-maximal inhibitory concentration (IC50) in assay [1] of 0.026 µM. In assay [2], the NS entry is “inactive”. Also, the NI entry in the assay on MDA-MB-453 was “inactive”.
The compound `NC(=O)C[C@@H]1NC(=O)C2(CCCCC2)NC(=O)C[C@@H](c2ccc(CP(=O)(O)O)cc2)NC(=O)CNC1=O` returned an IC50 in assay [1] greater than 600 µM.
In the case of `NC(=O)C[C@@H]1NC(=O)C2(CCCCC2)NC(=O)C[C@@H](c2ccc(CP(=O)(O)O)cc2)NC(=O)CCNC1=O`, the IC50 in assay [1] is greater than 600 µM.
The compound `NC(=O)C[C@@H]1NC(=O)C2(CCCCC2)NC(=O)C[C@@H](c2ccc(CP(=O)(O)O)cc2)NC(=O)C[C@@H](Cc2cccc3ccccc23)CNC1=O` displayed an IC50 in assay [1] of 7.9 µM. Moreover, the NS entry in assay [2] is “inactive”. Also, in the assay on MDA-MB-453, the NI result is “inactive”.
